Results as given in US10391180B2, “Self-assembling complex for targeting chemical agents to cells” (CEDARS-SINAI MEDICAL CENTER, priority 2007, dated 2019).

What was measured:
MDA-MB-231 (HER2−) cells = assay: Targeted toxicity, MTT assay, separate dishes; assay type: cell-based; details: HerDox/Dox 0.5 uM Dox; HerPBK10 0.1 uM; day 3
Method: (§1) FIG. 7 illustrates targeted toxicity. Each cell line was exposed to HerDox (0.5 uM Dox cone), Dox alone (0.5 uM), or HerPBK10 alone for 4 h at 37° C. in complete (i.e. serum-containing) media, followed by aspiration to remove free conjugate, and addition of fresh medium while cells are grown continuously. Cell titer was determined by metabolic (i.e. MTT) assay. FIG. 7 upper panel illustrates the effect of HerDox on MDA-MB-231 (HER2−) and MDA-MB-435 (HER2+) cell survival. Relative surviving cell numbers are represented as a % of corresponding untreated cells. FIG. 7 lower panel illustrates comparison of HerDox, Dox alone, or HerPBK10 alone on HER2− and HER2+ cell survival. Relative survival (as % of untreated cells) is shown for Day 3 of treatment.
(§2) The inventors compared the effect of HerDox or Dox alone at equivalent dosages (0.5 uM with respect to Dox concentration) on HER2+ and HER2− breast cancer cells in separate dishes. By three days, HerDox reduced HER2+ cell numbers by over 75% whereas HER2− cell survival was unaffected (FIG. 7). […] These findings emphasize the importance of targeting by showing that the untargeted drug affects nontarget (i.e. HER2−) cells. Importantly, the protein carrier, HerPBK10, alone at the equivalent concentration of protein in HerDox (0.1 uM) had no effect on either cell line (FIG. 7), including a lack of proliferation induction. To test receptor targeting, the inventors used free heregulin ligand (Her or eHRG) as a competitive inhibitor. […] As a final in vitro challenge, the inventors tested whether HerDox induces toxicity specifically to HER2+ cells in a mixed culture of HER2+ and HER2− breast cancer cells. To do this, the inventors produced a HER2− cell line tagged with green fluorescent protein (GFP) for cell identification in the mixed culture (FIG. 9 (A)). […] Altogether, these findings indicate that HerDox has the capacity to preferentially target toxicity to HER2+ cells. […] Moreover, the preferential cell killing of HER2+ cells in a mixed culture of HER2+ and HER2− cells implies that after death and lysis of the target cells, the Dox released into those cells is incapable of continuing to induce toxicity to HER2− cells. To further confirm the stability of HerDox in cell culture, HerDox was recovered from culture media in separate experiments at indicated time points and electrophoresed on an agarose gel, which was then illuminated by UV to detect Dox and stained with Coomassie blue to detect HerPBK10 protein (FIG. 9 (C)). […] Co-migration of HerPBK10 bands further verified that the conjugates remained intact in the cell media.

MDA-MB-435 (HER2+) cells = assay: Targeted toxicity, MTT assay, separate dishes; assay type: cell-based; details: Dox 0.5 uM; HerPBK10 0.1 uM; day 3
Method: as §1, §2

HER2+ tumors = assay: HerDox vs Dox biodistribution by Dox fluorescence imaging; assay type: in vivo, mice
Method: FIGS. 11 (A)-(B) illustrates preferential targeting of HerDox to HER2+ tumors. Tumor-bearing mice were injected with 0.75 nmoles of HerDox or Dox via the tail vein and imaged with a custom small animal imager. FIG. 11 (A) depicts imaging of live mice after IV delivery of HerDox. Tumors are indicated by arrows. FIG. 11 (B) depicts imaging of tumors and tissues harvested at 3 h after injection of HerDox or Dox. Fluorescence signal from Dox is pseudo-colored according to the color bar, with a shift toward 100 indicating high fluorescence intensity. FIG. 11 (B) illustrates a comparison of the targeted delivery of Dox to HER2+ breast cancer cells with minimal delivery to other organs and tissues using a delivery system in accordance with an embodiment of the present invention (left panel), as compared with Dox administered alone (right panel).
Dox emits a red fluorescence upon appropriate wavelength excitation, which can be used to detect biodistribution after systemic delivery of HerDox. Mice bearing 4-week old) tumors (˜700-800 mm^3) received a single tail vein injection of Dox or HerDox ([…] with respect to Dox cone) and images of live mice captured in real time, or of organs/tissues harvested at ˜3 h postinjection were acquired using a customized macro-illumination and detection system. Fluorescence was evident throughout the body at 10 min after HerDox injection, then quickly accumulated at the tumors by 20 min and remained detectable in the tumors up to 100 min after injection (FIG. 11 (A)).

[1] = test system: bilateral flank tumors (HER2+); assay: In vivo tumor toxicity, tumor growth; set-up: species or system mice; details: daily tail vein injections, 0.004 mg/kg Dox conc, 7 consecutive days
Method: (§3) FIGS. 12 (A)-(D) illustrates comparison of HerDox and Dox on (A) tumor growth, (B) animal weight, (C) cardiac tissue, and (D) cardiac function.
To assess in vivo tumor toxicity, mice bearing 3-4 week bilateral flank tumors began receiving daily tail vein injections of Dox or HerDox (0.004 mg/kg with respect to Dox conc), HerPBK10 alone (at equivalent protein concentration to HerDox) or saline for 7 consecutive days.

hearts of mice = assay: Cardiac tissue histology and echocardiography; assay type: in vivo
Source text: as §3
At 25 days following injections, tumors and organs were harvested and processed for histochemistry. It is established that Dox can induce acute and long-term cardiotoxicity, therefore, the inventors examined the hearts of mice treated with HerDox or Dox.

MDA-MB-435 cells [2] = assay: Intracellular translocation in live cells, Dox fluorescence microscopy; assay type: cell-based
Method: FIGS. 14 (A)-(B) illustrates comparison of HerDox and Dox intracellular translocation and targets in live cells. MDA-MB-435 cells were incubated with HerDox or free Dox (0.5 uM) at 37° C. Live (unfixed) cells were imaged by brightfield and fluorescence as depicted in […], or DIC and confocal fluorescence, as depicted in FIG. 14 (B), microscopy. Dox is indicated by red or magenta pseudocolor.
To understand the mechanism of HerDox mediated tumor cell death, the inventors examined HER2+ cells microscopically after treatment with HerDox, using Dox fluorescence to detect intracellular location. […] These dynamics, in addition to earlier targeting results, support a receptor-mediated HerDox entry mechanism. Even the intranuclear pattern of Dox when delivered by HerPBK10 differs from free Dox.

MDA-MB-435 cells [3] = assay: HerPBK10 binding to cells in human serum, ELISA; assay type: cell-based; details: 1.2 ug/well, cells exposed 2 hours to human sera
Method: FIG. 16 illustrates HerPBK10 binding to MDA-MB-435 cells in human serum from HER2+ or HER2− breast cancer patients. Cells were treated with HerPBK10 (1.2 ug/well) in media containing human serum from each of 5 HER2+ breast cancer patients or age matched HER2− controls, both obtained pre-chemotherapy treatment. Cells were processed for ELISA using an antibody directed at HerPBK10. Control (C) wells receiving HerPBK10 in media containing bovine serum without or with 100× molar excess competitive ligand inhibitor (+ Her) are indicated by open bars. Patient sera were provided by the WCRI tissue bank at Cedars-Sinai Medical Center. N=3 wells per treatment.
To determine whether HerPBK10 can compete with circulating ligand that may be present in serum, the inventors tested HerPBK10 binding to HER2+ breast cancer cells in human serum obtained from HER2+ patients. The Women's Cancer Research Institute at Cedars-Sinai occasionally acquires limited quantities of patient serum, of which sera from HER2+ patients comprises an even smaller minority. […] Here, the inventors replaced the bovine serum in the routine culturing media with the human serum obtained from the acquired patient samples to assess whether the human serum, especially from HER2+ patients, inhibits cell binding. […]

[4] = in the presence of serum; cited from earlier work
[5] = harvested at 3 h after injection

Compound | effect on HER2− cell survival (MDA-MB-231 (HER2−) cells) | effect on HER2+ cell numbers (MDA-MB-435 (HER2+) cells) | Dox fluorescence in kidneys (HER2+ tumors; [5]) | Dox fluorescence in liver (HER2+ tumors; [5]) | Dox fluorescence in tumors (HER2+ tumors; [5]) | Dox fluorescence in lungs and skeletal muscle (HER2+ tumors; harvested ~3 h after injection, equivalent dose of Dox) | tumor growth [1] | gross appearance of hearts (hearts of mice; 25 days following injections) | myocardium morphology (histochemistry) (hearts of mice; 25 days following injections) | echocardiogram: stroke volume, cardiac output, left ventricular internal dimension and volume (hearts of mice; treated mice) | intracellular location of Dox fluorescence (MDA-MB-435 cells [2]; 0.5 uM, 0 min of uptake) | intranuclear pattern of Dox (MDA-MB-435 cells [2]; live cells, confocal) | cell binding in serum from HER2+ patients, HER2− patients, or bovine serum (MDA-MB-435 cells [3]) | receptor targeting under physiological conditions [4]
COc1cccc2c1C(=O)c1c(O)c3c(c(O)c1C2=O)C[C@@](O)(C(=O)CO)C[C@@H]3O[C@H]1C[C@H](N)[C@H](O)[C@H](C)O1 [Dox, doxorubicin, reference compound] | reduced both HER2+ and HER2− cells by the same order of magnitude | reduced both HER2+ and HER2− cells by the same order of magnitude | detectable fluorescence | detectable fluorescence | detectable fluorescence | Lower levels of fluorescence | slows tumor growth | slightly enlarged and dilated | focal degeneration, myofibrillar loss, increased cytosoplasmic vacuolization, and nuclear condensation or dissolution | modest to marked reductions | inside the cell at the nuclear periphery | accumulates in the cell nucleus | – | –
HerPBK10: receptor binding domain of heregulin fused to adenovirus penton base protein modified by a C-terminal decalysine | no effect | no effect | – | – | – | – | no effect | – | – | – | – | – | no significant differences | retains receptor targeting
